Results taken from ChEMBL document CHEMBL4184114, “Discovery of selective, orally bioavailable inhibitor of mouse chitotriosidase” (Bioorg Med Chem Lett, 2018).

What was measured:
Chitotriosidase-1 = Chitotriosidase-1 (Mus musculus, UniProt Q9D7Q1); assay: Inhibition of mouse CHIT1 using 4-methylumbelliferyl beta-D-N,N',N'' triacetylchitotrioside as substrate measured after 60 mins by fluorometric method
[1] = target: Acidic mammalian chitinase (Mus musculus, UniProt Q91XA9); assay: Inhibition of mouse AMCase using 4-methylumbelliferyl beta-D-N,N' diacetylchitobioside hydrate as substrate measured after 60 mins by fluorometric method
[2] = Cmax in BALB/c mouse at 10 mg/kg, po by LC-MS/MS analysis; assay type: ADME, organism-based; parameters: dose 10 mg/kg, route oral; conditions: in vivo
[3] = Oral bioavailability in BALB/c mouse at 10 mg/kg by LC-MS/MS analysis; assay type: ADME, organism-based; conditions: in vivo
[4] = Volume of distribution at steady state in BALB/c mouse at 3 mg/kg, iv administered as bolus dose by LC-MS/MS analysis; assay type: ADME, organism-based; conditions: in vivo, read-out: Vdss
[5] = Clearance in BALB/c mouse at 3 mg/kg, iv administered as bolus dose by LC-MS/MS analysis; assay type: ADME, organism-based; conditions: in vivo
[6] = Half-life in BALB/c mouse at 10 mg/kg, po by LC-MS/MS analysis; assay type: ADME, organism-based; conditions: in vivo
[7] = AUC (0 to infinity) in BALB/c mouse at 3 mg/kg, iv administered as bolus dose by LC-MS/MS analysis; assay type: ADME, organism-based; parameters: dose 3 mg/kg, route intravenous, time infinity; conditions: in vivo
[8] = Half-life in BALB/c mouse at 3 mg/kg, iv administered as bolus dose by LC-MS/MS analysis; assay type: ADME, organism-based; conditions: in vivo
[9] = Tmax in BALB/c mouse at 10 mg/kg, po by LC-MS/MS analysis; assay type: ADME, organism-based; conditions: in vivo
[10] = AUC (0 to infinity) in BALB/c mouse at 10 mg/kg, po by LC-MS/MS analysis; assay type: ADME, organism-based; parameters: dose 10 mg/kg, time infinity, route oral; conditions: in vivo
[11] = Cmax in BALB/c mouse at 3 mg/kg, iv administered as bolus dose by LC-MS/MS analysis; assay type: ADME, organism-based; parameters: dose 3 mg/kg, route intravenous; conditions: in vivo

Chitotriosidase-1, sequence (Q9D7Q1 whole entry): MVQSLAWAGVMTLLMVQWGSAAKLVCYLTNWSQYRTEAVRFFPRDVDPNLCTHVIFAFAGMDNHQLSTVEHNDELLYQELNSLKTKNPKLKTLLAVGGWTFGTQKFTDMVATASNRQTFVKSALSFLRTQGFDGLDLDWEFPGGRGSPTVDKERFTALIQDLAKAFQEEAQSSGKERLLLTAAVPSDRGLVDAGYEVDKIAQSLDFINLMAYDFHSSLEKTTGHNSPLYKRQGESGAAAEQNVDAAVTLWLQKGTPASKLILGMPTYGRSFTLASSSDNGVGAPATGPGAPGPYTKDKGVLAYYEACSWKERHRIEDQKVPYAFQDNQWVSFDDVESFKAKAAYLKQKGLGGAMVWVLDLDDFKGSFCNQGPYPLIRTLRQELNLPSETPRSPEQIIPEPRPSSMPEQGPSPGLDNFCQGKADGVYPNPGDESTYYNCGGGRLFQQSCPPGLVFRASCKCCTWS
Acidic mammalian chitinase, sequence (Q91XA9 whole entry): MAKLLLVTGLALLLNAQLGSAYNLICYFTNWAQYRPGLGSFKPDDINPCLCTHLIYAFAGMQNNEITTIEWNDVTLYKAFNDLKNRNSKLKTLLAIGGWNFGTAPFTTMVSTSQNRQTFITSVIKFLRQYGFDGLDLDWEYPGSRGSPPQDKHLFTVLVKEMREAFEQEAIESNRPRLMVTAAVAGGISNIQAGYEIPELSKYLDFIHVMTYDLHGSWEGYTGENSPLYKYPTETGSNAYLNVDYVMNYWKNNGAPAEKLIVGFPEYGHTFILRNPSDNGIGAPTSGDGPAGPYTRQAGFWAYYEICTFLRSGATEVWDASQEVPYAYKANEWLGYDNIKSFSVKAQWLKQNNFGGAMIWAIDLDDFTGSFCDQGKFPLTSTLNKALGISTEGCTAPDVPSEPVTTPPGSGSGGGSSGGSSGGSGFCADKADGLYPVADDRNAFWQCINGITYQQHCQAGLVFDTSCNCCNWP

Row | IC50 (Chitotriosidase-1) [nM] | IC50 [1] [nM] | SMILES | other results
1 | 29 | 130 | Nc1nc(N2CCC(N3C[C@@H]4C[C@H](O)CN4C[C@@H]3Cc3ccc(Cl)cc3)CC2)n[nH]1 | 
2 | 495 | 1400 | C[C@H]1CN(C2CCN(c3n[nH]c(N)n3)CC2)[C@@H](Cc2ccc(Cl)cc2)CN1Cc1ccc(Cl)cc1 | 
3 | 186 | 1220 | C[C@H]1CN(C2CCN(c3nnc(N)[nH]3)CC2)[C@@H](Cc2ccc(Cl)cc2)CN1C | 
4 | 4380 | 6020 | CC(=O)N1C[C@H](Cc2ccc(Cl)cc2)N(C2CCN(c3nnc(N)[nH]3)CC2)C[C@@H]1C | 
5 | 29 | 4170 | CC(C)CN1C[C@H](Cc2ccc(Cl)cc2)N(C2CCN(c3n[nH]c(N)n3)CC2)C[C@@H]1C | Cmax [2]: 840 ng/mL; bioavailability [3]: 61.2%; Vd [4]: 4.6 L/kg; clearance [5]: 28.5 mL/min/kg; half-life [6]: 2.83 h; AUC(0-inf) [7]: 1750 ng·h/mL; half-life [8]: 2.87 h; Tmax [9]: 0.5 h; AUC(0-inf) [10]: 3570 ng·h/mL; Cmax [11]: 1480 ng/mL
6 | 175 | 525 | Nc1nc(N2CCC(N3C[C@@H]4CCCCN4C[C@@H]3Cc3ccc(Cl)cc3)CC2)n[nH]1 | 
7 | 1590 | 7600 | CN1CCN(C2CCN(c3nnc(N)[nH]3)CC2)[C@@H](Cc2ccc(Cl)cc2)C1 | 
8 | 24 | 751 | C[C@H]1CN(C2CCN(c3n[nH]c(N)n3)CC2)[C@@H](Cc2ccc(Cl)cc2)CN1CC(=O)N(C)C | 
9 | 175 | 1250 | CN1C[C@H](Cc2ccc(Cl)cc2)N(C2CCN(c3nnc(N)[nH]3)CC2)C[C@@H]1CO | 
10 | 1010 | 3720 | C[C@H]1CN(C2CCN(c3nnc(N)[nH]3)CC2)[C@@H](Cc2ccc(Cl)cc2)CN1S(C)(=O)=O | 
11 | 461 | 3750 | COC(=O)N1C[C@H](Cc2ccc(Cl)cc2)N(C2CCN(c3nnc(N)[nH]3)CC2)C[C@@H]1C | 
12 | 135 | 2910 | CC(C)C[C@H]1CN(C2CCN(c3n[nH]c(N)n3)CC2)[C@@H](Cc2ccc(Cl)cc2)CN1 | 
13 | 95 | 936 | CC(C)C[C@H]1CN(C2CCN(c3nnc(N)[nH]3)CC2)[C@@H](Cc2ccc(Cl)cc2)CN1C | 
14 | 48 | 136 | Nc1nc(N2CCC(N3C[C@@H]4C[C@@H](O)CN4C[C@@H]3Cc3ccc(Cl)cc3)CC2)n[nH]1 | 
15 | 128 | 640 | CN1C[C@H](Cc2ccc(Cl)cc2)N(C2CCN(c3nnc(N)[nH]3)CC2)C[C@@H]1CC1CCCCC1 | 
16 | 41 | 5700 | CC(C)C[C@H]1CN(C2CCN(c3n[nH]c(N)n3)CC2)[C@@H](Cc2ccc(Cl)cc2)CN1CC(C)C | 
17 | 29 | 231 | COC(=O)CN1C[C@H](Cc2ccc(Cl)cc2)N(C2CCN(c3n[nH]c(N)n3)CC2)C[C@@H]1C | 
18 | 53 | 527 | C[C@H]1CN(C2CCN(c3nnc(N)[nH]3)CC2)[C@@H](Cc2ccc(Cl)cc2)CN1CC(=O)O | 
19 | 161 | 697 | Nc1nnc(N2CCC(N3C[C@@H]4CCCN4C[C@@H]3Cc3ccc(Cl)cc3)CC2)[nH]1 | 
20 | 103 | 518 | CN1C[C@H](Cc2ccc(Cl)cc2)N(C2CCN(c3nnc(N)[nH]3)CC2)C[C@@H]1Cc1ccc(Cl)cc1 | 
